From patent publication US20050226879A1, “Methods and compositions related to inhibiting nuclear envelope breakdown” (priority 2002, published 2005)
Entries after “also recorded” stand apart in the source; their conditions may differ.

Experiments:
Type in all cases: biochemical, Xenopus laevis
[1] = test system: nuclear envelope breakdown; experiment: In vitro nuclear disassembly assay (nuclei assembled in Xenopus egg extract, cyclin B added); conditions: for function in the nuclear disassembly assay (inhibition of nuclear envelope breakdown): synthetic peptides 44 μM, 15 minutes prior to sperm chromatin, assessed 75 and 95 minutes post cyclin, qualitative
Source text: To investigate whetherNup153 participates in nuclear envelope breakdown, recombinant fragments of Nup153 were examined to determine if they exert dominant negative effects on this process in vitro. Cell-free extracts derived from Xenopus eggs were used to form synthetic nuclei around sperm chromatin. This system offers the advantage of biochemical manipulation, while being well-established to robustly recapitulate both nuclear assembly as well as nuclear disassembly in response to mitotic signals (Murray, A. W. et al., Nature 339, 280-286 (1989)). Cycloheximide was included to prevent synthesis of cyclin, thereby arresting these extracts in interphase. After nuclei were assembled, a recombinant form of stabilized cyclin B was added to initiate mitotic events. […] Detection of import cargo provided the clearest visualization of whether a nuclear envelope was intact. […] A control GST fusion protein (FIG. 7B, lanes 1 and 5) likewise had no effect (FIG. 7C, panels g and h). […] In addition, nuclear import cargo was still concentrated in nuclei under mitotic conditions, confirming both the presence and integrity of the nuclear envelope (FIG. 7C, panel o). The effect of the Nup153 zinc finger was not due to selective stability of this fragment, as equivalent levels of recombinant protein were detected in each reaction by immunoblot following the last time point (FIG. 7B, lanes 9-11).
Interphase Xenopus egg extracts were prepared using egg lysis buffer (ELB: 250 mM sucrose, 50 mM KCl, 2.5 mM MgCl2, 10 mM Hepes pH 7.4) supplemented with 1 mM dithiothreitol (DTT), 5 μg/ml cytochalasin B, aprotinin and leupeptin (10 μg/ml each), and 50 μg/ml cycloheximide (Powers, et al., In Current Protocols in Cell Biology (New York, John Wiley & Sons), pp. 11.10.11-11.11.24, (2001). Eggswere lysed by centrifugation for 15 min at 10,000 rpm. The cytoplasmic layer was collected as crude extract. For preparation of fiactionated egg extract, the crude extract was further centrifuged for 1.5 hr at 268,000 x g. The clarified supernatant was removed and further centrifuged for 1 hr at 259,000 x g to remove residual membranes. The crude extract was stored in liquid nitrogen; fractionated extract was frozen in liquid nitrogen and then stored at −80° C.
(§1) Demembranated condensed sperm chromatin was isolated from Xenopus testes as described previously (Powers, et al., In Current Protocols in Cell Biology (New York, John Wiley & Sons), pp. 11.10.11-11.11.24, (2001). For the assembly of nuclei, an ATP-generating system was added to 28 μl of crude egg extract. Sperm chromatin was added and nuclei were allowed to assemble by incubation at room temperature. After assembly for 1 hr, import substrate (NLS-HSA-RITC, prepared as in (Powers, et al., In Current Protocols in Cell Biology (New York, John Wiley & Sons), pp. 11.10.11-11.11.24, (2001)) was added to the reaction and incubated for another 30 min to assess the presence of functional pores and membrane integrity. Recombinant cyclin B with a deletion that confers stability was then added to the nuclei to initiate mitotic events (Murray, A. W., et al., Nature 339, 280-286 (1989). The role of cyclin synthesis and degradation in the control of maturation promoting factor activity Nature 339, 280-286, 1989). Samples were taken from the reaction at the indicated time points to monitor by fluorescence microscopy using DHCC (Calbiochem, San Diego, Calif.) to monitor membranes and Hoechst 33258 (Calbiochem) to monitor DNA. To examine the effects of protein fragments and antibodies on nuclear disassembly, the reagent in question was incubated with crude extract for 15 minutes at room temperature prior to the addition of sperm chromatin and energy mix. As noted, for protein fragments either 3 μg (corresponding to final concentrations of 3.3 μM, 1.7 μM, and 1.5 μM for GST, GST-N, and GST-Z respectively) or 4 μg (corresponding to final concentrations of 4.4 μM and 2 μM for GST and GST-Z respectively) was added. […]

[2] = test system: nuclear assembly and NLS-mediated import; experiment: Nuclear assembly and NLS import in egg extract (interphase); conditions: ARF peptide 22 μM present
Experimental: as §1, with “DNA.” for “DNA. To examine the effects of protein fragments and antibodies on nuclear disassembly, the reagent in question was incubated with crude extract for 15 minutes at room temperature prior to the addition of sperm chromatin and energy mix. As noted, for protein fragments either 3 μg (corresponding to final concentrations of 3.3 μM, 1.7 μM, and 1.5 μM for GST, GST-N, and GST-Z respectively) or 4 μg (corresponding to final concentrations of 4.4 μM and 2 μM for GST and GST-Z respectively) was added.”

[3] = test system: nuclear envelope breakdown; experiment: In vitro nuclear disassembly assay (nuclei assembled in Xenopus egg extract, cyclin B added); conditions: peptide added after nuclear assembly has taken place

## EKKGFLGKFLNAF MNG (EKKGFLGKFLNAFMNG) [ARF 17-2]
[1]; ARF peptides 22 μM, 75 minutes after cyclin addition
  effect on nuclear disassembly: no significant affect

## C[C@H]1CCC/C=C/[C@@H]2C[C@H](O)C[C@H]2[C@H](O)/C=C/C(=O)O1 [Brefeldin A]
[1]; Brefeldin A 0.6 μg/ml final, added 15 min prior to assembly
  effect on nuclear envelope breakdown: interferes with nuclear envelope breakdown; also recorded: very clear interference of nuclear envelope breakdown

## CNNTRSPYCGGGS
[1]
  function in the nuclear disassembly assay (inhibition of nuclear envelope breakdown): not inhibitory

## CGEHVRPSCGGGS
[1]
  function in the nuclear disassembly assay (inhibition of nuclear envelope breakdown): did not have activity

## CEQTYRVCGGGS (CEQTLYRVCGGGS)
[1]
  function in the nuclear disassembly assay (inhibition of nuclear envelope breakdown): not inhibitory

## (C)ESGELKPEDDVTVGPAQK (CESGELKPEDDVTVGPAQK; N-terminal cysteine) [immunogenic peptide]
[1]; anti-β-COP 5 μg incubated with β-COP peptide 5 μg for 15 min before addition
  protective effect of anti-β-COP antibodies on inclusion of the peptide: blocked

## GNMFANLFKGLFGKKE [ARF peptide]
[2]
  nuclear assembly: proceeded
[1]; ARF peptide 22 μM, 75 minutes after cyclin addition
  nuclei remaining intact: 90%

## CTHPFTHECGGGS [ZNFPHD1]
[3]
  function in the nuclear disassembly assay: not inhibitory
[1]; synthetic form as well as displayed form
  inhibition of nuclear envelope breakdown: capable of inhibiting nuclear envelope breakdown
[1]
  function in the nuclear disassembly assay (inhibition of nuclear envelope breakdown): inhibitory
